For orientation: IC50 means the concentration that gives 50% inhibition. A higher IC50 goes with weaker potency. The term MIC denotes the lowest concentration found to suppress growth. Higher therefore signals weaker potency.

Read-outs that look alike come from different tables or passages of the source. Where no end group is shown, it is not given here.

We go through seven substances from patent US7091185B2, “Periodic antimicrobial peptides” (Dow Global Technologies Inc., priority 2003, dated 2006).

One data set concerns Cr. Neoformans 32045. In kind it is cell-based. The essentials:
(§1)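 Broth microdilution per NCCLS, adapted for fungi with Sabouraud Dextrose Broth; KFAK-repeat peptide multimers in two-fold dilutions from 1,000 to 1 μg/ml. Growth by OD620 after overnight incubation; IC50 by sigmoidal fit, in duplicate, repeated at least twice.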

A further data set has as its system C. albicans 10231. The format is cell-based. As to conditions: 10231. The essentials: as §1
Another data set has as its system HeLa cell line. In words: HeLa MTS cellular reduction toxicity assay. As to conditions: for TX50: 24 h, MTS. The format is cell-based. The essentials:
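HeLa cells grown 48 h, then exposed to serial 2-fold peptide dilutions for 24 h at 37 °C, 5% CO2. MTS-PMS added for 1 h; absorbance at 490 nm compared with untreated cells. TX50 (50% toxicity concentration) from sigmoidal curve fit.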

In the next data set the test system is T. vaginalis. As to conditions: background statement; cited from earlier work.
For data set [1], the system named is herpes simplex virus (HSV). The following applies: mixed with a modified lipid octyl-glycerol; compared with magainins and defensins; cited from earlier work.
The nature of another data set: Red blood cell toxicity. The format is cell-based. As to conditions: red blood cells (RBC); RBCs; concentration required for 50% toxicity; read-out: TX50.
For the next data set, the system named is Red blood cells (RBC). The data set can be described thus: Red blood cell toxicity. In kind it is cell-based.
Another data set relates to P. aeruginosa. The following applies: background statement; cited from earlier work.
Data set [2] relates to rat prostate adenocarcinoma. The following applies: rat prostate adenocarcinoma model, cited from earlier work.
Another data set deals with E. coli ATCC 2592. The following applies: ATCC 2592.
The next data set deals with P. aeruginosa ATCC 10145. As to conditions: ATCC 10145.
The subject of data set [3] is S. aureus (methicillin resistant) ATCC 33591.
In a further data set the test system is C. trachomatis. As to conditions: background statement; cited from earlier work.
In data set [4] the test system is P. aeruginosa ATCC 15442. In words: HMARQ biocidal kill activity. In kind it is cell-based. The following applies: P. aeruginosa ATCC 15442 (gram−). Summed up: (§2)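 Inoculated sample matrix (200–300 μL) added to biocide in 96-well blocks alongside untreated controls; for kill-time runs organisms added after biocide. Viable counts by MPN serial 1:10 dilution in TSB with 50 μM resazurin indicator; values are ppm (μg/mL) giving 3.5 log kill versus untreated at 15 min or 24 h.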

Data set [5] relates to Staph. aureus ATCC 6538. The data set can be described thus: HMARQ biocidal kill activity. The following applies: Staph. aureus ATCC 6538 (gram+). The format is cell-based. Summed up: as §2
Data set [6] deals with P. aeruginosa ATCC 15442 / Staph. aureus ATCC 6538. In words: HMARQ biocidal testing. The following applies: summary of Table 6; peptides too small to span the membrane. The format is cell-based. As to the method:
Biocide efficacy protocols were improved by reducing sample size, organizing the test material into an array format, implementing most probable number (MPN) quantitation and using multi-channel liquid handling equipment. We call the new method “high-throughput microanalysis and rapid quantitation” or “HMARQ.” HMARQ is directly applicable to current industrial efficacy tests such as multi-cycle preservation challenge or time course disinfection tests.
HMARQ is performed in a high throughput plate, such as 96-well microtiter plates. Typical sample volumes have been reduced down to 200 to 300 μL, but can be reduced further if desired. In these samples, no more than 10% of the total volume will be composed of the biocide and organism solution, and all non-matrix additions are normalized for all samples.
The sample matrix is first inoculated with the desired concentration of microorganisms. Inoculated sample matrix is then added to the 96-well assay block containing the biocide(s) under study. Each sample block contains biocide treated samples and untreated control samples (lacking biocide). Once the samples are prepared, the entire block of samples is mixed by vortexing until each sample is homogenous. In general, the study starts once mixing is complete, and samples are removed as required for the analysis. When Kill Time testing (rate of biocide activity) is performed, the microorganisms are added after biocide addition to the samples, allowing for rapid mixing and analysis.
Bacterial concentration (CFU/mL) is determined using the most probable number method (MPN). […] A serial 1:10 dilution will yield a bacterial concentration resolution of 1 log and the log reduction is determined by comparing the concentration of organisms in a treated sample to the concentration of organisms in untreated samples. […]
Using the HMARQ test described above, periodic peptides were generated and tested for Kill Activity. […] Units are expressed as ppm (μg/mL) needed for 3.5 log kill at 15 min or 24 hour and the results are shown below.

Data set [7] deals with Staph. aureus ATCC 6538. The data set can be described thus: HMARQ biocidal kill activity. In kind it is cell-based. As to conditions: Staph. aureus ATCC 6538, 15 min, 3 log kill.
Data set [8] deals with P. aeruginosa ATCC 15442. In words: HMARQ biocidal kill activity. In kind it is cell-based. The following applies: P. aeruginosa ATCC 15442, 15 min, 3 log kill.
Setting [9] is: S. aureus (methicillin resistant) 33591, gram+.

Take “FAKKFAKKFKKFAKKFAKFAFAF [D2A21, reference compound]”: the IC50 in the data set with Cr. Neoformans 32045 came out at 21.9 µg/mL; in the data set on C. albicans 10231, 121.5 µg/mL; with E. coli ATCC 2592 it was 4.5 µg/mL; with P. aeruginosa ATCC 10145, 11.3 µg/mL; in data set [3] (ATCC 33591), 11.9 µg/mL. Moreover, the MIC in the data set on Cr. Neoformans 32045 was 62 to 125 µg/mL; with C. albicans 10231, >250 µg/mL; in the data set on E. coli ATCC 2592, 8 to 16 µg/mL; in [3] (ATCC 33591), 62 to 125 µg/mL. Moreover, in the data set on HeLa cell line, the “% kill at 500 μg/ml” value is recorded as 7.1%. In the data set on HeLa cell line, this substance had a TX50 of 16.9 µg/mL. For the same substance, the “activity (statement)” value with T. vaginalis, with P. aeruginosa and with C. trachomatis was “has activity against” throughout. In addition, the “activity against HSV compared with other peptides” value in data set [1] is reported as “better than five other peptides”. Moreover, the HC50 at 24 h in the data set “Red blood cell toxicity” came out at 52 µg/mL. For the same substance, the “% kill at 250 μg/ml” value in the data set with Red blood cells (RBC) (RBCs, 250 μg/ml) came out at 93.1%. Also, in [2] (improved from 25%, preliminary results (Arlotti 2001)), the survival rate is given as 75%. Also, the toxicities entry in data set [2] is “not causing any significant toxicities”.

As to “FKA FKA (FKAFKA; Periodic Peptide) [FKA(2)]”, in the data set on P. aeruginosa ATCC 15442 [4], the “ppm needed for 3.5 log kill at 15 min” value is on record as >500 ppm and the “ppm needed for 3.5 log kill at 24 hr” value is 125 ppm. In the data set with Staph. aureus ATCC 6538 [5], the “ppm needed for 3.5 log kill at 15 min” value was 16 ppm and the “ppm needed for 3.5 log kill at 24 hr” value is reported as 500 ppm. Moreover, the “biocidal activity (statement)” value in [6] is on record as “demonstrate biocidal activity”.

Turning to “FKA FKA FKA FKA (FKAFKAFKAFKA; Periodic Peptide) [FKA(4)]”, in the data set on P. aeruginosa ATCC 15442 [4], the “ppm needed for 3.5 log kill at 15 min” value is recorded as >500 ppm and the “ppm needed for 3.5 log kill at 24 hr” value was found to be 125 ppm. In the data set on Staph. aureus ATCC 6538 [5], the “ppm needed for 3.5 log kill at 15 min” value turned out to be 4 ppm and the “ppm needed for 3.5 log kill at 24 hr” value was found to be 250 ppm. Moreover, in [6], the “biocidal activity (statement)” value was “demonstrate biocidal activity”.

For the substance “KFAK KFAK KFAK KFAK KFAK KFAK KFAK KFAK KFAK KFAK KFAK KFAK (KFAKKFAKKFAKKFAKKFAKKFAKKFAKKFAKKFAKKFAKKFAKKFAK; Periodic Peptide) [KFAK(12)]”, the “ppm at 15 min, cell marked (3 log)” value with Staph. aureus ATCC 6538 [7] was 31(3 log) ppm. In the data set with P. aeruginosa ATCC 15442 [4], the “ppm needed for 3.5 log kill at 15 min” value stood at 16 ppm and the “ppm needed for 3.5 log kill at 24 hr” value was 31 ppm. The “ppm needed for 3.5 log kill at 24 hr” value in the data set with Staph. aureus ATCC 6538 [5] is given as >500 ppm.

Regarding LK LK (LKLK; Periodic Peptide) [LK(2)], in the data set on P. aeruginosa ATCC 15442 [4], the “ppm needed for 3.5 log kill at 15 min” value was >500 ppm and the “ppm needed for 3.5 log kill at 24 hr” value is reported as 250 ppm. In the data set with Staph. aureus ATCC 6538 [5], the “ppm needed for 3.5 log kill at 15 min” value was >500 ppm and the “ppm needed for 3.5 log kill at 24 hr” value amounted to 16 ppm. The “biocidal activity (statement)” value in data set [6] is given as “demonstrate biocidal activity”.

For the substance “LKLKLKLKLKLKLKLKLKLKLKLK [LK (12), LK LK LK LK LK LK LK LK LK LK LK LK]”, the “ppm needed for 3.5 log kill at 24 hr” value in the data set with P. aeruginosa ATCC 15442 [4] worked out at 4 ppm; in the data set with Staph. aureus ATCC 6538 [5], 8 ppm. Besides, the “ppm needed for 3.5 log kill at 15 min” value with Staph. aureus ATCC 6538 [5] amounted to 4 ppm. Also, the “ppm at 15 min, cell marked (3 log)” value in the data set with P. aeruginosa ATCC 15442 [8] was 16 (3 log) ppm. The IC50 worked out at 22 µg/mL in the data set on Cr. Neoformans 32045; 175 µg/mL in the data set on C. albicans 10231; 23 µg/mL with E. coli ATCC 2592; 41 µg/mL with P. aeruginosa ATCC 10145; 85 µg/mL in data set [3] (ATCC 33591). The MIC is 32 to 62 µg/mL in the data set with Cr. Neoformans 32045; 250 to 500 µg/mL in the data set with C. albicans 10231; 62 to 125 µg/mL against E. coli ATCC 2592; 45 µg/mL in the data set on P. aeruginosa ATCC 10145; >250 µg/mL in data set [3] (ATCC 33591). Also, the “% kill at 500 μg/ml” value in the data set on HeLa cell line was determined as 60.0%. Also, the TX50 with HeLa cell line came out at 49 µg/mL. The HC50 at 24 h in “Red blood cell toxicity” was > 500 µg/mL. For the same substance, the “% kill at 250 μg/ml” value in the data set with Red blood cells (RBC) came to 35%.

On to “LRLRLRLRLRLRLRLRLR [LR (9), LR LR LR LR LR LR LR LR LR]”, for which the results for the “ppm needed for 3.5 log kill at 24 hr” value in the data set with P. aeruginosa ATCC 15442 [4] and with Staph. aureus ATCC 6538 [5] were 4 ppm and 8 ppm, respectively. The “ppm needed for 3.5 log kill at 15 min” value with Staph. aureus ATCC 6538 [5] was 16 ppm. Also, the “ppm at 15 min, cell marked (3 log)” value with P. aeruginosa ATCC 15442 [8] is given as 31(3 log) ppm. The IC50 with Cr. Neoformans 32045 was 21 µg/mL; with C. albicans 10231 it was 195 µg/mL; with E. coli ATCC 2592, 70 µg/mL; with P. aeruginosa ATCC 10145 it was >250 µg/mL; in data set [3] (setting [9]) it was 28 µg/mL. In addition, the MIC with Cr. Neoformans 32045 was 62 to 125 µg/mL; in the data set on C. albicans 10231, 250 to 500 µg/mL; with E. coli ATCC 2592, >125 µg/mL; against P. aeruginosa ATCC 10145, >250 µg/mL; in data set [3] (setting [9]) it was 125 to 250 µg/mL. For the same substance, in the data set with HeLa cell line, the “% kill at 500 μg/ml” value was found to be 96.7%. Also, in the data set on HeLa cell line, the TX50 is >500 µg/mL. Also, in the data set “Red blood cell toxicity”, the HC50 at 24 h is > 500 µg/mL. Moreover, the “% kill at 250 μg/ml” value in the data set on Red blood cells (RBC) (RBCs, 250 μg/ml) was determined as 24%.
